Measured values taken from US20120129152A1, “Diagnostic method for the prediction of the development of and control over the effectiveness of treatment of cardiovascular illnesses” (priority 2010, published 2012).

Legend:
Type in all cases: in vivo, human
[1] = Electrocardiogram indices of treated patient; details: Example 1, after Valacyclovir with Nitrosorbidum and Corinfar
[2] = Hemodynamic indicators (tetrapolar rheography) of treated patient; details: Example 1, after Valacyclovir with Nitrosorbidum and Corinfar
Epstein-Barr virus = assay: IIF of patients' blood immunocytes: cells infected with Epstein-Barr virus
Method: (§1) The task set is addressed through a diagnostic method for the prediction of the development and control of the effectiveness of the treatment of cardiovascular, in which patient tissue samples are taken (immunocytes and erythrocytes from venous and capillary blood, smears and prints from atherosclerotic plaques after surgical intervention, and cells from urinary and salivary sediment), microdrugs are prepared, specific anti-viral immunoglobulins are processed (for types 1 and 2 herpes viruses, the cytomegalovirus, the herpes Zoster virus, the Epstein-Barr virus, the herpes 6 virus, or the combinations thereof), the number of cells infected by two or more viruses before the beginning of treatment, during treatment, and after treatment are determined with the application of anti-viral therapy, and the dynamic of the change in the number of infected cells and their interrelationships are established: if the number of cells infected by two or more viruses, among which cytomegalovirus must be found, exceeds 50±10% in patients with cardiovascular disease, a diagnostic conclusion of the threat of atherosclerosis complications such as myocardial infarction and stroke, as well as of complications such as arrhythmia, thrombic embolisms, severe left ventricular failure, repeated myocardial infarction, cardiogenic shock, and a high possibility of a fatal result; the method can also be used in patients with cardiovascular diseases after treatment through a method of a combination of traditional methods and the use of anti-viral drugs and a change is seen in the percentage of infected cells after treatment if the number of cells infected by two or more viruses decreases by more than 20±10% in repeat diagnostics, the treatment is considered successful, whereas if a decrease by 20±10% in the number of cells infected by cytomegalovirus and any other aforementioned virus in repeat diagnostics is not seen, a conclusion is drawn on the ineffectiveness of the therapy applied in that period and the need to change the antiviral therapy scheme.

[3] = Free-radical acidization of lipids, serum indicators of treated patient; details: Example 1, after Valacyclovir with Nitrosorbidum and Corinfar
[4] = Clinical condition of treated patient with ischemic heart disease
HSV-1 = assay: IIF of patients' blood immunocytes: cells infected with herpes type 1 virus
Description: […]

cytomegalovirus = assay: IIF of patients' blood immunocytes: cells infected with cytomegalovirus
Method: as §1

[5] = Blood serum lipid complex (lipidogram) of treated patients
[6] = Example 2, after Valacyclovir 3 courses of 7 days, before 50% of cells infected

CC(C)[C@H](N)C(=O)OCCOCn1cnc2c(=O)[nH]c(N)nc21 [Valacyclovir]
NST on the electrocardiogram ([1]; before 10.0): 0
SST on the electrocardiogram ([1]; before 11.0): 0
T index on the electrocardiogram ([1]; before 35.0): 0
capacity of the left ventricle ([2]; before 2.02): 2.29 W
energy loss ([2]; before 15.96): 10.37 conditional units
specific peripheral resistance ([2]; before 74.53): 65.97 conditional units
flow rate ([2]; before 126.5): 169.71 mL/s
total peripheral vascular resistance ([2]; before 2917.9): 2673.6 dyn s cm^−5
blood immunocytes infected with EBV (IIF) (Epstein-Barr virus; Example 1, after Valacyclovir with Nitrosorbidum and Corinfar, before 70% of cells infected): 50%
blood immunocytes infected with EBV (IIF) (Epstein-Barr virus; [6]): 10%
Epstein-Barr virus antigens in immunocytes, repeat IIF study (Epstein-Barr virus; Example 4, two months after combination therapy Valacyclovir with immunoglobulin and Laferobion, before 50% of cells infected): did not discover antigens
triethynoid conjugates ([3]; before 0.23): 0.14 mcmol/ml
serum malondialdehyde ([3]; before 0.50): 0.31 mcmol/ml
diethynoid conjugates ([3]; before 1.332): 0.70 mcmol/ml
a-tocopherol content ([3]; before 2.69): 4.32 mcmol/ml
glutathione reductase activity ([3]; before 12.4): 22.0 mcmol/l h
patient's condition ([4]; Example 1, within seven weeks, Valacyclovir with Nitrosorbidum and Corinfar): improved significantly
angina pain and shortness of breath ([4]; Example 1, within seven weeks, Valacyclovir with Nitrosorbidum and Corinfar, nitroglycerine tablets not used): not present
lipidogram, peroxide acidization of lipids, electrocardiography and tetrapolar rheography indicators ([4]; summary of the examples, standard treatment scheme combined with Valacyclovir): normalized
immunocytes infected with HSV-1 (IIF) (HSV-1; Example 3, after Valacyclovir 5 courses of 7 days, before 70% of cells infected): 30%
herpes type 1 virus antigens in immunocytes, repeat IIF study (HSV-1; Example 4, two months after combination therapy Valacyclovir with immunoglobulin and Laferobion, before 60% of cells infected): did not discover antigens
blood immunocytes infected with CMV (IIF) (cytomegalovirus; Example 1, after Valacyclovir with Nitrosorbidum and Corinfar, before 60% of cells infected): 20%
CMV in the blood immunocytes (IIF) (cytomegalovirus; [6]): not present
immunocytes infected with cytomegalovirus (IIF) (cytomegalovirus; Example 3, after Valacyclovir 5 courses of 7 days, before 50% of cells infected): 10%
cytomegalovirus antigens in immunocytes, repeat IIF study (cytomegalovirus; Example 4, two months after combination therapy Valacyclovir with immunoglobulin and Laferobion, before 30% of cells infected): did not discover antigens
total cholesterol in blood serum ([5]; Example 1, patient one, after Valacyclovir 1.0 g three times a day with Nitrosorbidum and Corinfar, before 6.71): 3.26 mmol/L
cholesterol/HDL ([5]; Example 1, after Valacyclovir with Nitrosorbidum and Corinfar, before 1.17): 1.20 mmol/L
LDL ([5]; Example 1, after Valacyclovir with Nitrosorbidum and Corinfar, before 1.55): 0.47 mmol/L
triglycerides in blood serum ([5]; Example 1, after Valacyclovir with Nitrosorbidum and Corinfar, before 3.4): 1.04 mmol/L
cholesterol/LDL ([5]; Example 1, after Valacyclovir with Nitrosorbidum and Corinfar, before 3.99): 3.68 mmol/L
atherogenesis index ([5]; Example 1, after Valacyclovir with Nitrosorbidum and Corinfar, before 4.74): 3.38
b-lipoproteins in blood serum ([5]; Example 1, after Valacyclovir with Nitrosorbidum and Corinfar, before 770): 310 conditional units
triglycerides ([5]; Example 2, after Valacyclovir 1.0 g 3×/day for 3 courses of 7 days, before 1.55): 1.3 mmol/L
total cholesterol ([5]; Example 2, after Valacyclovir 1.0 g 3×/day for 3 courses of 7 days, before 4.9): 4.7 mmoles/1
total cholesterol ([5]; Example 3, after Valacyclovir 1 g 3×/day for 5 courses of 7 days with 7-day intervals, before 5.6): 4.9 mmol/L
triglycerides ([5]; Example 3, after Valacyclovir 1 g 3×/day for 5 courses of 7 days, before 2.55): 1.95 mmol/L
triglycerides ([5]; Example 4, after combination therapy Valacyclovir with immunoglobulin and Laferobion, before 1.4): 1.3 mmoles/1
total cholesterol ([5]; Example 4, after combination therapy: Valacyclovir 1.0 g 3 times a day, three courses of seven days, with immunoglobulin and Laferobion, before 3.9): 1.5 mmoles/1

CCC(C)(C)C(=O)O[C@H]1C[C@@H](C)C=C2C=C[C@H](C)[C@H](CC[C@@H]3C[C@@H](O)CC(=O)O3)[C@H]21 [simvastatin]
total cholesterol ([5]; Example 2, patient two, after six months of simvastatin 10 mg/day (with metoprolol, enalapril, aspirin), goal indicator 5.0 mmoles/l): 4.9 mmoles/1
triglycerides ([5]; Example 2, after six months of simvastatin 10 mg/day): 1.55 mmol/L
total cholesterol ([5]; Example 3, patient, after five months of simvastatin 10 mg/day (with metoprolol, aspirin), goal indicator 5.0 mmoles/l): 5.6 mmoles/1
triglycerides ([5]; Example 3, after five months of simvastatin 10 mg/day): 2.55 mmol/L
total cholesterol ([5]; Example 4, patient one, after six months of Zocor 20 mg/day (with Corvitol, Renitec, aspirin), goal indicator 4.0 mmoles/l): 3.9 mmoles/1
triglycerides ([5]; Example 4, after six months of Zocor 20 mg/day): 1.4 mmol/L
